According to patent publication US9050353B2, “Use of icariin and epimedium flavonoids containing icariin to treat diseases associated with myelin sheath lesion” (Xuanwu Hospital of Capital Medical University, priority 2010, dated 2015):

What was measured:
[1] = system: inflammatory cell infiltration in spinal cord tissues of EAE mice model; assay: Inflammatory cell infiltration in spinal cord, HE staining, EAE mice; format: in vivo; conditions: scale 0-4
Procedure: (§1) Preparation of mice model and administration: experimental autoimmune encephalomyelitis (EAE) mice model is an important tool for studying various human demyelinating diseases of nervous system. In the present experiment, the preparation of EAE mice model was performed by immunizing female C57BL/6J mice with myelin sheath oligodendroglial cell surface glycoprotein MOG35-55. That is, the mice were subcutaneously injected at dorsal part of spinal column with 0.2 mL of MOG35-55 antigen elixir, and 0.2 ml of bordetella pertussis solution was intraperitoneally injected at the time of immunization injection and 48 h thereafter, respectively. Icariin was intragastrically administered after the last injection of bordetella pertussis solution, for consecutive 3 weeks.
Experimental objective: the pathological changes of spinal cord in EAE model, especially inflammatory cell infiltration situations was assayed by hematoxylin-eosin (HE) staining test, and the intervention effects of […] on these pathological changes were observed.
Experimental method: the mice were anesthetized with 10% chloral hydrate on the 28th day of experiment, fixed by perfusion of 4% paraformaldehyde, spinal cord tissues were taken for making paraffin sections, section thickness […]. Stained with HE, observed under microscope, and scored according to the following standard: 0 score, absence of cell infiltration; 1 score, spinal meninge cell infiltration; 2 score, 1 to 4 small ranges of cell infiltration around vessels; 3 score, 5 or more small ranges of cell infiltration around vessels, or one or more accumulatively substantial large range of cell infiltration; 4 score, a large number of cell infiltration ranges accumulatively existing in 20% or more of white matter regions.

CNPase = assay: Spinal cord CNPase by Western blot, EAE mice; format: in vivo
Procedure: as §1
(§2) Experimental objective: myelin sheath is formed with prominences of oligodendroglial cells. CNPase, myelin basic protein (MBP) are marker proteins of mature oligodendroglial cells. The present experiment was to observe the expression of CNPase and MBP to represent the content of oligodendroglial cells in spinal cord of EAE model mice by Western blot method; and to study the effects of icariin on it.
(§3) Experimental method: the mice were anesthetized and sacrificed, fresh spinal cord was taken on ice, total protein was extracted by cleavage on ice, to prepare Western blot sample, added separately with CNPase, MBP primary antibodies and incubated, added with corresponding secondary antibodies, ECL colorated, Kodak film exposed. Pictures were analyzed with Image J software and standardized with β-actin.

[2] = system: experimental autoimmune encephalomyelitis (EAE) mice model; assay: Nervous function damage score in EAE mice model; format: in vivo, C57BL/6J mice; conditions: peak of attack, scale 0-5
Procedure: as §1
Nervous function test method: the ethological changes of mice were observed by two experimenters every day using blind method. Scoring standard: 0 score, absence of symptom; 1 score, decrease of tail tension, evident slight gait awkward; 2 score, disappearance of tail tension, moderate gait abnormal, deficient in maintaining gesture; 3 score, limb strength weak; 4 score, limb paralysis; 5 score, near death or died.

IL-1 = assay: Serum IL-1 content by ELISA, EAE mice; format: in vivo
Procedure: as §1
(§4) Experimental objective: interleukin-1 (IL-1) and IL-6 are important inflammatory cytokines, and have promoting effects on inflammatory reactions. This experiment used enzyme linked immunosorbent assay (ELISA) to measure contents of IL-1 and IL-6 in serums of EAE mice model, and the effects of icariin on these contents were observed.
(§5) Experimental method: mice were anesthetized with pentobarbital sodium, blood sample was taken from abdominal aorta, stood at room temperature for 2 h, centrifuged at 3000 rpm for 20 min, and supernatant was taken, stored at −80° C. for use. The operation was performed strictly according to the steps of specification of ELISA kit. Optical density was measured with ELIASA at 450 nm. The corresponding contents of IL-1 and IL-6 were calculated with the measured OD values on standard curves.

[3] = system: myelin basic protein (MBP); assay: Spinal cord MBP by Western blot, EAE mice; format: in vivo
Procedure: as §1, §2, §3

[4] = system: peripheral blood CD4+ and CD8+ T cells; assay: Peripheral blood T cell subgroup by flow cytometer, EAE mice; format: in vivo
Procedure: as §1
Experimental objective: one common feature of autoimmune diseases is the […]. In this experiment, the numbers of CD4+ and CD8+ cells in peripheral blood T cell subgroup of EAE mice mode were measured by flow cytometer (FACS), and the ratio of them was obtained; and the effects of icariin on these changes were observed.
Experimental method: mice were anesthetized with pentobarbital sodium, blood sample was taken from abdominal aorta, stood at room temperature for 2 h, centrifuged at 3000 rpm for 20 min, and cells were taken, added with anti-CD4+, CD8+ T cell antibodies with different markers, then the percentages of CD4+, CD8+ cells in T lymphocytes were measured by flow cytometer, and the CD4+/CD8+ T cells ratio was calculated.

IL-6 = assay: Serum IL-6 content by ELISA, EAE mice; format: in vivo
Procedure: as §1, §4, §5

[5] = system: myeloid tissue myelinoclasis in EAE mice model; assay: Myelinoclasis of myeloid tissue, LFB staining, EAE mice; format: in vivo; conditions: scale 0-4
Procedure: as §1
Experimental objective: the myelinoclasis of myeloid tissue of EAE model mice were assayed by Luxol Fast Blue (LFB) staining, and the intervention effects of icariin on this pathological change were studied.
Experimental method: the mice were anesthetized with 10% chloral hydrate on the 29th day of experiment, fixed by perfusion of 4% paraformaldehyde, myeloid tissues were taken for making paraffin sections, section thickness […]. Stained with LFB, observed under microscope, and scored according to the following standard: 0 score, absence of myelinoclasis; 1 score, one small range of myelinoclasis; 2 score, 2 or 3 small ranges of myelinoclasis; 3 score, 1 to 2 large ranges of myelinoclasis; 4 score, large ranges of myelinoclasis accumulatively existing in 20% or more of white matter regions.

## COc1ccc(-c2oc3c(CC=C(C)C)c(OC4OC(CO)C(O)C(O)C4O)cc(O)c3c(=O)c2OC2OC(C)C(O)C(O)C2O)cc1 (stereo not drawn) [icariin, 3-((6-deoxymannopyranosyl)oxy)-7-(glucopyranosyloxy)-5-hydroxy-2-(4-methoxyphenyl)-8-(3-methyl-2-butenyl)-4H-1-benzopyran-4-ketone]
[1]; 3 mg/kg
  Inflammatory cell infiltration (HE staining score): 2.08 ± 0.09
[1]; 10 mg/kg
  Inflammatory cell infiltration (HE staining score): 1.58 ± 0.16
[1]; 30 mg/kg
  Inflammatory cell infiltration (HE staining score): 1.18 ± 0.21
CNPase; 3 mg/kg
  CNPase/actin Integration grey level: 1.16 ± 0.04
CNPase; 10 mg/kg
  CNPase/actin Integration grey level: 1.28 ± 0.07
CNPase; 30 mg/kg
  CNPase/actin Integration grey level: 1.33 ± 0.05
[2]; 3 mg/kg intragastric
  Nervous function damage score: 0.57 ± 0.49
[2]; 10 mg/kg intragastric
  Nervous function damage score: 0.32 ± 0.52
[2]; 30 mg/kg intragastric
  Nervous function damage score: 0.13 ± 0.34
IL-1; 3 mg/kg
  IL-1 content: 0.119 ± 0.003 pg/mL
IL-1; 10 mg/kg
  IL-1 content: 0.114 ± 0.001 pg/mL
IL-1; 30 mg/kg
  IL-1 content: 0.113 ± 0.002 pg/mL
[3]; 3 mg/kg
  MBP/actin Integration grey level: 0.98 ± 0.13
[3]; 10 mg/kg
  MBP/actin Integration grey level: 1.07 ± 0.08
[3]; 30 mg/kg
  MBP/actin Integration grey level: 1.11 ± 0.06
[4]; 3 mg/kg
  CD4 + T cells: 52.78 ± 3.30%
  CD4 +/CD8 + ratio: 1.25 ± 0.20
  CD8 + T cells: 42.61 ± 3.10%
[4]; 10 mg/kg
  CD4 + T cells: 58.89 ± 1.27 %
  CD4 +/CD8 + ratio: 1.62 ± 0.06
  CD8 + T cells: 36.43 ± 0.38 %
[4]; 30 mg/kg
  CD4 + T cells: 55.81 ± 1.41%
  CD4 +/CD8 + ratio: 1.39 ± 0.12
  CD8 + T cells: 40.20 ± 1.79%
IL-6; 3 mg/kg
  IL-6 content: 0.147 ± 0.011 pg/mL
IL-6; 10 mg/kg
  IL-6 content: 0.142 ± 0.013 pg/mL
IL-6; 30 mg/kg
  IL-6 content: 0.126 ± 0.011 pg/mL
[5]; 3 mg/kg
  Myelinoclasis (LFB staining score): 0.91 ± 0.21
[5]; 10 mg/kg
  Myelinoclasis (LFB staining score): 0.78 ± 0.16
[5]; 30 mg/kg
  Myelinoclasis (LFB staining score): 0.66 ± 0.20
